# According to patent US20060258576A1, “Gdnf-related neuropeptides” (Licentia, Ltd, priority 2003, published 2006):
# “Also recorded” adds a separate entry of the source. No end group written: not given here.
# B1: glial cell line-derived neurotrophic factor (protein, UniProt P39905 78-211, looked up)
# Glial cell line-derived …: SPDKQMAVLPRRERNRQAAAANPENSRGKGRRGQRGKNRGCVLTAIHLNVTDLGLGYETKEELIFRYCSGSCDAAETTYDKILKNLSRNRRLVSDKVGQACCRPIAFDDDLSFLDDNLVYHILRKHSAKRCGCI
# notes: neurotrophic factor, literature comparison
# Columns and labels:
# synaptic transmission = details: Qian et al (1997); cited from earlier work
# hippocampus area CA1 = assay: Extracellular recordings (pEPSPs, population spikes) in acute rat hippocampal brain slice preparation; assay type: cell-based; details: for pEPSPs, fraction of control (FIG. 4D) / pSpikes, fraction of control (FIG. 4C): 10 nM SEQ ID NO:11, 20 nM SEQ ID NO:9 and SEQ ID NO:15, 250 μM NEM, adult rat hippocampus; for excitatory synaptic input into primary cells in the rat CA1: acute rat hippocampal brain slice; for reversal of effects upon removal of peptide from the superfusate: washout
# adult rat brain = assay: Binding of I125-labeled peptides to adult rat brain slices (autoradiography)
# Excerpt: (§1) The binding of I^125-labeled peptides to embryonic and adult rodent tissues was studied in vitro. Chemically synthesized peptides containing an extra N-terminal tyrosine (Sigma-Genosys, Cambridge, UK) were labeled with lactoperoxidase (Trupp et al. (1995) J. Cell Biol. 130(1): 137-148). Specific activities obtained for each were 0.5-2.5×10^14 cpm/mmol, except for SEQ ID NO:9 10^13 cpm/mmol. From both E17 Wistar rat and E15 mouse embryos, kidneys, gut, pancreas and spinal cord were dissected. In addition, testes, ovaries, brain and adrenal glands of the embryonic mice were taken. The binding was performed and paraffin sections of embryonic tissues were processed as described (Partanen et al. (1987) Dev Biol 120(1): 186-197). Freshly cut adult rat brain slices of 1 mm were cut and incubated in 0.5-1 nmol/ml of ^125I-peptides, washed and processed for paraffin sections. Kodak (Rochester, N.Y.) NTB-2 emulsion was used for autoradiography and the samples were exposed from 3 to 12 weeks at +4° C. The sections were developed with Kodak D19 and stained with hematoxylin.
# For immunohistochemical staining of tissues, paraffin sections were mounted with Immumount (Shandon, Pittsburgh, Pa.). Sections were stained with an anti-class III β-tubulin antibody (Tuj1; Covance Inc., Princeton, N.J.), which recognizes selectively neuronal cells. […]
# embryonic mouse tissues = assay: Binding of I125-labeled peptides to embryonic mouse tissues (autoradiography, Tuj1 staining)
# Excerpt: as §1
# For immunohistochemical staining of tissues, paraffin sections were mounted with Immumount (Shandon, Pittsburgh, Pa.). Sections were stained with an anti-class III β-tubulin antibody (Tuj1; Covance Inc., Princeton, N.J.), which recognizes selectively neuronal cells. Staining was performed with Vectastain kit (Vector Laboratories, Burlingame, Calif.) according to manufacturer's instructions, except that the primary antibody (1:300) was incubated in +4° C. o/n.
# ureteric branching = details: Sainio et al. (1997); cited from earlier work
# primary neurons = details: U. Arumäe, personal communication; cited from earlier work
# [1] = 10 nM peptide in the presence of 250 μM NEM
# [2] = superfusion with 10-50 nM, 0.05 Hz stimulation of Schaffer collateral fibres, CA1, slices from P28-P35 rats
molecule,measurement,setting,value
neuropeptide Y [NPY],levels necessary for inhibition of synaptic transmission,synaptic transmission,1 µM
"PYY3-36: peptide YY fragment, literature comparison",levels necessary for inhibition of synaptic transmission,synaptic transmission,1 µM
"LLEAPAEDHSL(a) (LLEAPAEDHSL-NH2; not fully specified) [SEQ ID NO:11, GDNF precursor-derived neuropeptide; mouse, rat]","pEPSPs, fraction of control (FIG. 4D)",hippocampus area CA1,substantially increases
same,"pSpikes, fraction of control (FIG. 4C)",hippocampus area CA1,substantially increases
same,pEPSPs when peptide is added to NEM,hippocampus area CA1; [1],no further increase
same,pSpikes when peptide is added to NEM,hippocampus area CA1; [1],no further increase
same,"increase in presynaptic volley with or without NEM (FIG. 4 A, B)","hippocampus area CA1; 10 nM peptide, absence or presence of 250 μM NEM",seen only in the absence of NEM
same,average increase in the presynaptic fiber volley,"hippocampus area CA1; CA1, rat hippocampal slices",34%
same,excitatory synaptic input into primary cells in the rat CA1,hippocampus area CA1,modulate
same,effect on excitability in the presence of a Gi/o-blocking agent,"hippocampus area CA1; in the presence of NEM (FIG. 4 B, C, D)",no effect
same,effective concentrations on pEPSP and pSpike (FIG. 6),hippocampus area CA1; increasing concentrations,nanomolar
same,increase of pEPSPs,hippocampus area CA1; [2],30-40%
same,increase of population spikes (pSPs),hippocampus area CA1; [2],30-40%
same,reversal of effects upon removal of peptide from the superfusate,hippocampus area CA1,fully or almost fully reversed
same,specific binding,"adult rat brain; I125-labeled peptide with extra N-terminal tyrosine, 0.5-1 nmol/ml",specific binding
same,binding to adult rat brain slices (FIG. 3 A-D),"adult rat brain; I125-labeled peptide, sections containing the hippocampal area",extensive binding exclusively in adult rat brain; also recorded: intensive binding
"FPLPA(a) (FPLPA-NH2; not fully specified) [SEQ ID NO:9, GDNF precursor-derived neuropeptide; human, mouse, rat]",presynaptic fiber volley (in words),"hippocampus area CA1; CA1, rat hippocampal slices",significant decrease
same,change of pSPs,"hippocampus area CA1; CA1, rat hippocampal slices, concentration not given",−24%
same,excitatory synaptic input into primary cells in the rat CA1,hippocampus area CA1,modulate
same,reversal of effects upon removal of peptide from the superfusate,hippocampus area CA1,fully or almost fully reversed
same,specific binding,embryonic mouse tissues; I125-labeled peptide with extra N-terminal tyrosine,specific binding
same,tissue distribution of binding,"embryonic mouse tissues; I125-labeled peptide, E15 mouse embryo tissues",restricted to embryonic mouse tissues outside the CNS; also recorded: bound to embryonic (E15) mouse tissues
same,binding in testis,"embryonic mouse tissues; embryonic mouse testis (FIG. 3 I, J)",binding to the interstitium
same,distribution of binding versus neuronal β-tubulin (Tuj1) staining,embryonic mouse tissues; gut and metanephric kidney capsule (FIG. 3 E-H),closely overlapped
"CCN1C(=O)C=CC1=O [NEM, N-ethylmaleimide, reference compound]","pEPSPs, fraction of control (FIG. 4D)",hippocampus area CA1,increases
same,"pSpikes, fraction of control (FIG. 4C)",hippocampus area CA1,increases
same,stimulus-evoked responses,"hippocampus area CA1; NEM by bath perfusion, every slice recorded",increased
B1,concentrations required for promotion of ureteric branching,ureteric branching,nanomolar
same,concentrations required for maintenance of primary neurons,primary neurons,nanomolar
